Measured values from US20260041649A1, “ANTI-INFLAMMATORY AGENT” (WATANABE OYSTER LABORATORY, CO., LTD., priority 2023, published 2026).

Experiments:
[1] = system: mouse macrophage RAW264.7 cells; experiment: Western blotting of cytokine signalling proteins with or without LPS; format: cell-based; conditions: DHMBA 10 μM, 5 hours
Experimental: Cells (1×10^6 cells/10 ml of medium) were cultured in a DMEM culture medium for 3 days until they reached subconfluence. After that, cells were cultured for another 5 hours in the control group (1% ethanol; DHMBA 0 M) and in the DHMBA-treated group (10 μM) with or without of LPS (100 ng/ml). After the culture, cell lysates were obtained for Western blot assay using specific antibodies against COX-1, COX-2, MAPK, phospho-MAPK, NF-κB p65, STAT3, and β-actin, as shown in FIG. 3.
Band intensities are presented as fold increase over the controls, under the following conditions: no LPS (FIG. 8B), LPS (100 ng/ml) alone (FIG. 8C), and LPS (100 ng/ml) plus DHMBA (10 μM) (FIG. 8D). Data are presented as the mean±SD of values obtained from 4 dishes using different cell preparations. *: Significant difference (p<0.01) versus the control without LPS (FIG. 8C). *: Significant difference (p<0.01) versus the control with LPS but without DHMBA (FIG. 8D). Statistical analysis was performed using 1-way ANOVA with Tukey-Kramer post-test.
To measure the expression levels of Cox-1, Cox-2, NF-κB p65, and STAT3, which are involved in cytokine signaling, RAW264.7 cells (1×10^6 cells/10 ml of 100 mm dish) were cultured in a DMEM culture medium containing 10% FS, 1% P/S, and 1% fungizone for 3 days until they reached subconfluence, and then cultured for another 5 hours in the control group (1% ethanol; DHMBA 0 μM as final concentration) and in the DHMBA-treated group (10 μM) with or without LPS (100 ng/ml in the medium). After the culture, the cells attached to the dish were scraped off with a cell lysis buffer and collected for measurement as described in the “Western blotting” section.
RAW264.7 cells (1×10^6 cells/10 ml of 100 mm dish) were cultured for 3 days in 10% FBS, 1% P/S (1% ethanol), or in the DHMBA-treated group (10 μM). After the culture, the dishes were washed with cold PBS (10 ml) to remove floating and dead cells. The cell lysis buffer (Cell Signaling Technology, Inc., Danvers, MA, USA) supplemented with protease/protein phosphatase inhibitor (Roche Diagnostics, Indianapolis, IN, USA) was added to the cells to collect cell lysates of the adherent cells as described in the previous study. The cell lysates were centrifuged at 17,000×g, 4° C. for 10 min. Protein concentrations in the supernatants were measured using Bio-Rad Protein Assay Dye (Bio-Rad Laboratories, Inc., Hercules, CA, USA) with bovine serum albumin as a standard. The cell lysates were stored at −80° C. until use. The supernatant proteins (40 μg/lane) were separated by SDS-polyacrylamide gel electrophoresis (12% SDS-PAGE) and transferred to a PVDF membrane. The transferred membranes were immunoblotted with specific antibodies against various proteins, including Ras (cat. no. 3339, rabbit), Akt (cat. no. 9272, rabbit), mitogen-activated protein kinase (MAPK; cat. no. 4695, rabbit), phosphorylated MAPK (cat. no. 4370, rabbit), mechanistic target of rapamycin (mTOR; cat. no. 4517, mouse), Rb (cat. no. 9309, mouse), p21 (cat. no. 2947, rabbit), STAT3 (cat. no. 12640, rabbit), COX-1 (cat. no. 48415), COX-2 (cat. no. 4842), and β-actin (cat. no. 3700, mouse), all of which were purchased from Cell Signaling Technology, Inc. (Danvers, MA, USA). Specific antibodies for p53 (cat. no. sc-126, mouse) and NF-κB p65 (cat. no. sc-109, rabbit) were purchased from Santa Cruz Biotechnology Inc. (Santa Cruz, CA, USA). Additionally, rabbit anti-regucalcin antibody (cat. no. HPA029103, rabbit) was obtained from Sigma-Aldrich. Target proteins were incubated overnight at 4° C. with one of the above primary antibodies (1:1,000). After incubation, the membranes were further incubated with horseradish peroxidase-conjugated secondary antibodies (Santa Cruz Biotechnology Inc., cat. no. sc-2005 (mouse) or sc-2305 (rabbit); dilution 1:2000) for 60 min at room temperature, and protein bands were detected using chemiluminescence substrates (cat. no. 34577, Thermo Fisher Scientific Inc., Rockford, IL, USA) on X-ray films. […]

[2] = system: RAW264.7 cells cultured with LPS; experiment: Cell proliferation of RAW264.7 cells cultured with LPS; format: cell-based, mouse; conditions: DHMBA 1 or 10 μM, LPS 100 ng/ml, 3 days
Experimental: In FIG. 5A, to examine the effect on cell proliferation, RAW264.7 cells (1×10^5/ml/well) were cultured for 3 days in a DMEM culture medium containing 10% FBS, 1% P/S, and 1% fungizone in the control group (1% ethanol as final concentration) with or without LPS (1, 10, 50, 100, 500 ng/ml). In FIG. 5B, cells (1×10^5/ml per well) were cultured for 3 days in a DMEM culture medium containing 10% FBS, 1% P/S, and 1% fungizone in the DHMBA-treated group (1 or 10 μM) with or without LPS (100 ng/ml). In FIG. 5C, to examine the effect on cell death, cells that had reached subconfluence after 3 days of culture were cultured for another 48 hours in the control group (1% ethanol) with or without LPS (1, 10, 50, 100, or 500 ng/ml). In FIG. 5D, cells that had reached subconfluence were cultured for another 48 hours in the DHMBA-treated group (1 or 10 μM) with or without LPS (100 ng/ml). After the culture, the number of cells attached to the dish was counted. Data are presented as the mean±SD from a total of 8 wells in 2 plates using different cell preparations. *: Significant difference (p<0.01) versus the controls without LPS (gray bars) (FIG. 5A and FIG. 5C) or without DHMBA (gray bars) (FIG. 5B and FIG. 5D). […]
The number of viable cells was counted under a microscope (Olympus MTV-3) using a hemocytometer (Sigma-Aldrich) and a cell counter (H-102P, Line Seiki Co., Ltd., Tokyo, Japan).

`COc1c(O)cc(CO)cc1O` [DHMBA, 3,5-dihydroxy-4-methoxybenzyl alcohol] was tested, and the “LPS-increased level of MAPK” value ([1]; LPS 100 ng/ml) was “suppressed”, the “LPS-increased level of NF-κB p65” value ([1]; LPS 100 ng/ml) was “suppressed” and the “LPS-increased level of STAT3” value ([1]; LPS 100 ng/ml) was “suppressed”. The “LPS-increased level of phospho-MAPK” value ([1]; LPS 100 ng/ml) was “suppressed”, the “level of COX-1” value ([1]; without LPS) was “not altered” and the “level of COX-2” value ([1]; without LPS) was “not altered”. The “level of MAPK” value ([1]; without LPS) was “not altered”, the “level of NF-κB p65” value ([1]; without LPS) was “not altered” and the “level of STAT3” value ([1]; without LPS) was “not altered”. The “level of phospho-MAPK” value ([1]; without LPS) was “not altered” and the “proliferation of RAW264.7 cells in the presence of LPS” value [2] was “suppressed”.
